Here are results for 24 molecules from patent US7153869B2, “Substituted amino acids as erythropoietin mimetics” (priority 1998, dated 2006).

Each structure is given as a SMILES string.

One assay has as its target T1, EBP-Ig (N-terminal 225 amino acids of the human EPO receptor joined to an Ig heavy chain) (Homo sapiens, UniProt P19235).
T1 construct: Ig heavy chain (fusion partner); made in house; host or cells: NSO cells (secreted into conditioned media)
T1 sequence (P19235 25-250 limits assumed): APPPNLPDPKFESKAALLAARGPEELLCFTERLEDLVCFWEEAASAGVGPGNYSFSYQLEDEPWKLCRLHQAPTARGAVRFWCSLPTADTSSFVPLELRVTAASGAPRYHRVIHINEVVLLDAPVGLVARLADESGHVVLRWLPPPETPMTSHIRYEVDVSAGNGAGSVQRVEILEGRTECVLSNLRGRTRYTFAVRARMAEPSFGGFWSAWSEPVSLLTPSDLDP
The experiment in a line: Inhibition of [125I]EPO binding to immobilized EBP-Ig (EPO binding protein-Ig), scintillation Flash plate competition assay. Particulars: 0.5 nM [125I]EPO; 0–500 μM test compound.
`CC(=O)O.COC(=O)c1cccc(C=CCNC(CCCCNC(=O)OCc2ccccc2)C(=O)OC)c1` (centres unmarked) [compound 321]: the “IC30 μM (Inhibition of EPO binding to EBP-Ig)” value was found to be 45 µM.

Still in this assay, the particulars now being: 50 μM compound; Table 18A.
For the molecule `COC(=O)[C@H](CCCCNC(=O)OCc1ccccc1)NC/C=C/c1ccc(OC)cc1` [compound 320], the “EPO/EBP-Ig % inh @ 50 μM” value is listed as 17%.

With `CC(=O)O.COC(=O)c1cccc(C=CCNC(CCCCNC(=O)OCc2ccccc2)C(=O)OC)c1` (centres unmarked) [compound 321], the “EPO/EBP-Ig % inh @ 50 μM” value turned out to be 42%.

`COC(=O)[C@H](CCCCNC(=O)OCc1ccccc1)NC/C=C/c1ccc(C(=O)O)cc1` [compound 323]: the “EPO/EBP-Ig % inh @ 50 μM” value is listed as 6%.

Staying with this assay, now noted: 50 μM compound; Table 19A.
Take `COC(=O)[C@H](CCC(=O)O)NC/C=C/c1ccc(-c2ccccc2)cc1.O=C(O)C(F)(F)F` [compound 327]: the “EPO/EBP-Ig % inh @ 50 μM” value is 11%.

For the molecule `COC(=O)[C@H](CCC(=O)O)NC/C=C/c1cccc(Oc2ccc(Cl)c(Cl)c2)c1.O=C(O)C(F)(F)F` [compound 328], the “EPO/EBP-Ig % inh @ 50 μM” value is given as 33%.

Consider `O=C(O)C(F)(F)F.O=C(O)CC[C@H](NC/C=C/c1ccc(-c2ccccc2)cc1)C(=O)O` [compound 329], for which the “EPO/EBP-Ig % inh @ 50 μM” value was 13%.

With `O=C(O)C(F)(F)F.O=C(O)CC[C@H](NC/C=C/c1cccc(Oc2cccc(C(F)(F)F)c2)c1)C(=O)O` [compound 330], the “EPO/EBP-Ig % inh @ 50 μM” value amounted to 12%.

In the case of `CC(C)(C)c1ccc(Oc2cccc(/C=C/CN[C@@H](CCC(=O)O)C(=O)O)c2)cc1.O=C(O)C(F)(F)F` [compound 331], the “EPO/EBP-Ig % inh @ 50 μM” value was determined as 18%.

For `O=C(O)C(F)(F)F.O=C(O)CC[C@H](NC/C=C/c1cccc(Oc2ccc(Cl)c(Cl)c2)c1)C(=O)O` [compound 332], the “EPO/EBP-Ig % inh @ 50 μM” value was determined as 17%.

Consider `COC(=O)[C@H](CCC(=O)OC(C)(C)C)NC/C=C/c1ccc2ccccc2c1` [compound 333], for which the “EPO/EBP-Ig % inh @ 50 μM” value is 16%.

Take `COC(=O)[C@H](CCC(=O)OC(C)(C)C)NC/C=C/c1ccc(-c2ccccc2)cc1` [compound 335]: the “EPO/EBP-Ig % inh @ 50 μM” value worked out at 25%.

Turning to `COC(=O)[C@H](CCC(=O)OC(C)(C)C)NC/C=C/c1cccc(Oc2ccc(Cl)c(Cl)c2)c1` [compound 336], the “EPO/EBP-Ig % inh @ 50 μM” value is 32%.

With `CC(C)(C)OC(=O)CC[C@H](NC/C=C/c1cccc(Oc2cccc(C(F)(F)F)c2)c1)C(=O)OC(C)(C)C` [compound 338], the “EPO/EBP-Ig % inh @ 50 μM” value is 23%.

On to `CC(C)(C)OC(=O)CC[C@H](NC/C=C/c1cccc(Oc2ccc(C(C)(C)C)cc2)c1)C(=O)OC(C)(C)C` [compound 339], for which the “EPO/EBP-Ig % inh @ 50 μM” value was 10%.

`CC(C)(C)OC(=O)CC[C@H](NC/C=C/c1ccc(-c2ccccc2)cc1)C(=O)O` [compound 340]: the “EPO/EBP-Ig % inh @ 50 μM” value was 14%.

As for `CC(C)(C)OC(=O)CC[C@H](NC/C=C/c1cccc(Oc2ccc(Cl)c(Cl)c2)c1)C(=O)O` [compound 341], the “EPO/EBP-Ig % inh @ 50 μM” value is 19%.

The assay is the same for the next values; noted with them: 50 μM compound; Table 20A.
On to `COC(=O)[C@H](CO)NC/C=C/c1ccc(-c2ccccc2)cc1.O=C(O)C(F)(F)F` [compound 342], for which the “EPO/EBP-Ig % inh @ 50 μM” value came to 0%.

Take `COC(=O)[C@H](CO)NC/C=C/c1cccc(Oc2ccc(C(C)(C)C)cc2)c1.O=C(O)C(F)(F)F` [compound 343]: the “EPO/EBP-Ig % inh @ 50 μM” value was found to be 37%.

As to `COC(=O)[C@H](CO)NC/C=C/c1cccc(Oc2cccc(C(F)(F)F)c2)c1.O=C(O)C(F)(F)F` [compound 344], the “EPO/EBP-Ig % inh @ 50 μM” value came out at 4%.

As to `COC(=O)[C@H](CO)NC/C=C/c1cccc(Oc2ccc(Cl)c(Cl)c2)c1.O=C(O)C(F)(F)F` [compound 345], the “EPO/EBP-Ig % inh @ 50 μM” value turned out to be 40%.

Consider `O=C(O)C(F)(F)F.O=C(O)[C@H](CO)NC/C=C/c1ccc(-c2ccccc2)cc1` [compound 348], for which the “EPO/EBP-Ig % inh @ 50 μM” value is reported as 21%.

As for `O=C(O)C(F)(F)F.O=C(O)[C@H](CO)NC/C=C/c1cccc(Oc2ccc(Cl)c(Cl)c2)c1` [compound 349], the “EPO/EBP-Ig % inh @ 50 μM” value is given as 23%.

Regarding `O=C(O)C(F)(F)F.O=C(O)[C@H](CO)NC/C=C/c1cccc(Oc2cccc(C(F)(F)F)c2)c1` [compound 350], the “EPO/EBP-Ig % inh @ 50 μM” value came out at 23%.

Turning to `CC(C)(C)c1ccc(Oc2cccc(/C=C/CN[C@@H](CO)C(=O)O)c2)cc1.O=C(O)C(F)(F)F` [compound 351], the “EPO/EBP-Ig % inh @ 50 μM” value worked out at 29%.

The same assay, now with this note: 50 μM test compound; 0.5 nM [125I]EPO; average % inhibition.
Take `CC(=O)O.COC(=O)c1cccc(C=CCNC(CCCCNC(=O)OCc2ccccc2)C(=O)OC)c1` (centres unmarked) [compound 321]: the “% inh @ 50 μM (Inhibition of EPO binding to EBP-Ig)” value amounted to 42%.
